Assay results reported in ChEMBL document CHEMBL2074003, “Transport of somatostatin and substance P by human P-glycoprotein” (FEBS Lett, 2004).

Experiments:
[1] = target: T1, ATP-dependent translocase ABCB1 (Homo sapiens, UniProt P08183); assay: TP_TRANSPORTER: uptake in membrane vesicles prepared from K562/ADM cells; assay type: functional, cell membranes, Membrane vesicle; settings: k562/adr
[2] = target: T1, ATP-dependent translocase ABCB1; assay: TP_TRANSPORTER: uptake in membrane vesicles prepared from human MDR1 transfected KB3-1 cells; assay type: functional, cell membranes, Membrane vesicle; settings: kb 3-1

T1 sequence (P08183 whole entry): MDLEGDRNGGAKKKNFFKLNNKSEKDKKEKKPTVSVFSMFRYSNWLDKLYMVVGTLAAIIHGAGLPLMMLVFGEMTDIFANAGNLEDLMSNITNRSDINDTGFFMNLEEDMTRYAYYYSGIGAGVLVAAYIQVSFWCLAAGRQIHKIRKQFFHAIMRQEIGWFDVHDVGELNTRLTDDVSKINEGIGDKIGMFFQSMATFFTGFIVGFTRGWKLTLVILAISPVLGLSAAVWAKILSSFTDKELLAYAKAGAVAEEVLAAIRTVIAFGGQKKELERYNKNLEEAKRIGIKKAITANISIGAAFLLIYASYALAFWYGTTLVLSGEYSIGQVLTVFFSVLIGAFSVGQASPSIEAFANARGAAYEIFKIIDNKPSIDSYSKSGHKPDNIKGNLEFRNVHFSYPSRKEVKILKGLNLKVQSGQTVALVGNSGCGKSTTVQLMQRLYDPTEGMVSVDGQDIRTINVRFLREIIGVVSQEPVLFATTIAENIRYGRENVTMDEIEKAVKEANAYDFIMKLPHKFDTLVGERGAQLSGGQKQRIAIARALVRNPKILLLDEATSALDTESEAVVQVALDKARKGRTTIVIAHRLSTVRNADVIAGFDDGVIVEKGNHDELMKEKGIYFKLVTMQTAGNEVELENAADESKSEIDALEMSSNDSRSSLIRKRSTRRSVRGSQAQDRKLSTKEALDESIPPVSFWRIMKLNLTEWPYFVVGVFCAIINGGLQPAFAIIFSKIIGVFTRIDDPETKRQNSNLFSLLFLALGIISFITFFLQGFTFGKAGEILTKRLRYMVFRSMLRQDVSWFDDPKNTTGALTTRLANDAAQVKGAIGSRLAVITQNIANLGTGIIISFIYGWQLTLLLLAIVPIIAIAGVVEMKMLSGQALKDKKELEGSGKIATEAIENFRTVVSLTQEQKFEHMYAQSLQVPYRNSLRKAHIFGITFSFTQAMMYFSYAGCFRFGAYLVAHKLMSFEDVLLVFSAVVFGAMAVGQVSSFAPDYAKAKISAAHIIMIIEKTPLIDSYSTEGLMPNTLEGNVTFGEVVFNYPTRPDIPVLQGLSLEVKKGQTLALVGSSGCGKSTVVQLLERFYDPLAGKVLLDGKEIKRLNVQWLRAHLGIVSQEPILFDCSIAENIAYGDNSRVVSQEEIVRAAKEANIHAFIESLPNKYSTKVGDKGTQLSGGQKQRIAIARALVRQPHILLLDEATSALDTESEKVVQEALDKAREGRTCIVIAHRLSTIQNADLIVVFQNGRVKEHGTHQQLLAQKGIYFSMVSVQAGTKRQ

| SMILES | Activity [1] | Activity [2] |
| --- | --- | --- |
| C[C@H](N)C(=O)NCC(=O)N[C@H]1CSSC[C@@H](C(=O)O)NC(=O)[C@H](CO)NC(=O)[C@H]([C@@H](C)O)NC(=O)[C@H](Cc2ccccc2)NC(=O)[C@H]([C@@H](C)O)NC(=O)[C@H](CCCCN)NC(=O)[C@H](Cc2c[nH]c3ccccc23)NC(=O)[C@H](Cc2ccccc2)NC(=O)[C@H](Cc2ccccc2)NC(=O)[C@H](CC(N)=O)NC(=O)[C@H](CCCCN)NC1=O [SOMATOSTATIN] | substrate [+] | substrate [+] |
| CSCC[C@H](NC(=O)[C@H](CC(C)C)NC(=O)CNC(=O)[C@H](Cc1ccccc1)NC(=O)[C@H](Cc1ccccc1)NC(=O)[C@H](CCC(N)=O)NC(=O)[C@H](CCC(N)=O)NC(=O)[C@@H]1CCCN1C(=O)[C@H](CCCCN)NC(=O)[C@@H]1CCCN1C(=O)[C@@H](N)CCCN=C(N)N)C(N)=O [SUBSTANCE P] | substrate [+] | substrate [+] |
